Laboratory results taken from patent US9440941B2, “Substituted chroman-6-yloxy-cycloalkanes and their use as pharmaceuticals” (SANOFI, priority 2013, dated 2016).
Structures can show the parent of a compound that is named as a salt.

Molecular target: T1, human NCX1 (Homo sapiens, UniProt P32418)
T1 construct: expressed in transfected cells
Assay: Inhibition of Ca2+ influx into cells (NCX1 reverse mode), FLIPR Fluo-4 assay
Format: cell-based
Conditions: inhibition of NCX1 in reverse mode (Ca2+ influx into cells); read-out: NCX1rv IC50
Description: The sodium/calcium exchanger NCX1 can transport calcium ions and sodium ions through the cell membrane. The transport is an exchange of Ca^2+ and Na^+ in two directions depending on membrane potential and ion gradients. At the first direction, named “forward mode” or “calcium export mode”, Ca^2+ is transported out of the cell and Na^+ is transported into the cell. At the other direction, named “reverse mode” or “calcium import mode”, the transport directions are vice versa. The effect of the compounds of the invention on NCX1 was determined in CHO cells stably expressing human NCX1 (gene symbol SLC8A1; cf. WO 2009/115238). The assay is based on the monitoring of intracellular Ca^2+ concentrations using a calcium-sensitive fluorescence dye which is detected by means of a FLIPR device (Fluorimetric Imaging Plate Reader, Molecular Devices).
Assay Technology—Reverse Mode
The assay is based on the monitoring of intracellular Ca^2+ concentrations using the calcium-sensitive dye Fluo-4. CHO cells expressing NCX1 were loaded with the dye by means of the acetoxymethyl ester Fluo-4 AM (Invitrogen, F14202), which is cleaved intracellularly by esterase activity to yield the charged species of free Fluo-4. After an preincubation period with the test compound, Gramicidine (Sigma, G5002) was added. Gramicidine is an ionophor for Na^+ ions mediating an increase of intracellular Na^+ ions. Consequently, intracellular Na^+ ions are exchanged against extracellular Ca^2+ ions (Ca^2+ influx, reverse mode). The intracellular elevation of Ca^2+ ions was detected by measuring the fluorescence of Fluo-4 at a wavelength of 520 nm by a FLIPR device.
Briefly, for the reverse mode transport assay 18000 cells per well were seeded into a 96 well microplate (Corning COSTAR 3904) and incubated overnight in culture medium (1× Nut Mix F12 (Ham) (Gibco, 21765-029); 10% (v/v) fetal calf serum (PAA Gold, A15-649); 450 μg/ml Geneticin (Gibco, 10131-027)). A total volume of 100 μl medium per well was used. For the preparation of the FLIPR assay, the culture medium was removed from the plates and 100 μl of dye solution (2 μM Fluo-4 AM; 0.02% (v/v) Pluronic F-127 (20%, Invitrogen, P3000MP); 0.1% (v/v) bovine albumin solution (30% (v/v), Sigma, A9205) in assay buffer (133.8 mM NaCl (Sigma, S5886); 4.7 mM KCl (Sigma, P3911); 1.25 mM MgCl2 (Merck, 1.05833.0250); 3.5 mM CaCl2 (Merck, 1.02083.0250); 5 mM glucose (Sigma, G7021); 10 mM Hepes (Sigma, H4034); 0.01% (v/v) Pluronic F-127 (5%, Sigma, P2443); 2.5 mM Probenecid (Maybridge, SB00915EB); pH 7.4)) were added into each well. The plates were incubated in the dark at room temperature for 80 min. After the incubation period, the dye solution was removed and the wells were washed with 100 μl of assay buffer. Then 80 μl of a solution of the test compound in assay buffer in different concentrations were added into the wells. The plates were incubated at 16° C. for 45 min. Meanwhile a 60 μM solution of Gramicidine in assay buffer (4° C.) was prepared and stored in the wells of a 96 well microplate (96 well microplate, polypropylene, U-shape (Greiner Bio-One, 650201)) at 4° C. until measurement was started. The fluorescence monitoring was performed at 240 measuring points with measurement intervals of 2 sec. After the fifth measuring point, 40 μl of the Gramicidine solution were added to each well of the assay plates to give a final Gramicidine concentration of 20 μM. For the determination of the IC50 values the minimal fluorescence value was subtracted from the maximal fluorescence value for all measuring points. The calculation of the IC50 values via the percentage inhibitions of Ca^2+ influx into cells (reverse mode) effected by the test compound was performed in Biost@t Speed 2.0.

| Compound | IC50 [nM] |
| --- | --- |
| 1,1-Dioxo-N-[4-(2-phenylchroman-6-yloxy)cyclohexyl]-tetrahydrothiophen-3-ylamine [compound 147] | 700 |
| 4-(2-Phenylchroman-6-yloxy)-N-(2-piperidin-1-ylethyl)cyclohexylamine [compound 145] | 2100 |
| 4-(2-Phenylchroman-6-yloxy)-N-(2-pyrrolidin-1-ylethyl)cyclohexylamine [compound 137] | 1300 |
| 4-(2-Phenylchroman-6-yloxy)-N-(2-thiomorpholin-4-ylethyl)cyclohexylamine [compound 139] | 1000 |
| NC[C@H]1CC[C@@H](Oc2ccc3c(c2)CCC(c2ccccc2)O3)CC1 (relative stereo) [compound 1, hydrochloride] | 500 |
| N[C@H]1CC[C@@H](Oc2ccc3c(c2)CCC(c2ccccc2)O3)CC1 (relative stereo) [compound 2, hydrochloride] | 1300 |
| CS(=O)(=O)NC[C@H]1CC[C@@H](Oc2ccc3c(c2)CCC(c2ccccc2)O3)CC1 (relative stereo) [compound 3] | 700 |
| CC(=O)NC[C@H]1CC[C@@H](Oc2ccc3c(c2)CCC(c2ccccc2)O3)CC1 (relative stereo) [compound 4] | 400 |
| CC(=O)N[C@H]1CC[C@@H](Oc2ccc3c(c2)CCC(c2ccccc2)O3)CC1 (relative stereo) [compound 6] | 500 |
| CC(=O)N[C@H]1CC[C@H](Oc2ccc3c(c2)CCC(c2ccccc2)O3)CC1 (relative stereo) [compound 7] | 300 |
| CSCC(=O)N[C@H]1CC[C@H](Oc2ccc3c(c2)CCC(c2ccccc2)O3)CC1 (relative stereo) [compound 19] | 100 |
| O=C(N[C@H]1CC[C@H](Oc2ccc3c(c2)CCC(c2ccccc2)O3)CC1)C1CCC1 (relative stereo) [compound 20] | 200 |
| CS(=O)(=O)CCC(=O)N[C@H]1CC[C@H](Oc2ccc3c(c2)CCC(c2ccccc2)O3)CC1 (relative stereo) [compound 21] | 200 |
| O=C(Cn1cccn1)N[C@H]1CC[C@H](Oc2ccc3c(c2)CCC(c2ccccc2)O3)CC1 (relative stereo) [compound 24] | 300 |
| Cc1cc(CC(=O)N[C@H]2CC[C@H](Oc3ccc4c(c3)CCC(c3ccccc3)O4)CC2)on1 (relative stereo) [compound 25] | 200 |
| O=C(N[C@H]1CC[C@H](Oc2ccc3c(c2)CCC(c2ccccc2)O3)CC1)C1CC1 (relative stereo) [compound 26] | 100 |
| O=C(CC1CC1)N[C@H]1CC[C@H](Oc2ccc3c(c2)CCC(c2ccccc2)O3)CC1 (relative stereo) [compound 27] | 200 |
| Cc1ccn(CC(=O)N[C@H]2CC[C@H](Oc3ccc4c(c3)CCC(c3ccccc3)O4)CC2)n1 (relative stereo) [compound 28] | 200 |
| Cc1nc(C(=O)N[C@H]2CC[C@H](Oc3ccc4c(c3)CCC(c3ccccc3)O4)CC2)cs1 (relative stereo) [compound 29] | 300 |
| COCCC(=O)N[C@H]1CC[C@H](Oc2ccc3c(c2)CCC(c2ccccc2)O3)CC1 (relative stereo) [compound 30] | 300 |
| O=C(N[C@H]1CC[C@H](Oc2ccc3c(c2)CCC(c2ccccc2)O3)CC1)c1ccncc1F (relative stereo) [compound 31] | 100 |
| O=C(N[C@H]1CC[C@H](Oc2ccc3c(c2)CCC(c2ccccc2)O3)CC1)C1CC1(F)F (relative stereo) [compound 32] | 100 |

| Compound | IC50 [nM] |
| --- | --- |
| O=C(Cn1cncn1)N[C@H]1CC[C@H](Oc2ccc3c(c2)CCC(c2ccccc2)O3)CC1 (relative stereo) [compound 35] | 100 |
| Cc1nn(C)c(C)c1CCC(=O)N[C@H]1CC[C@H](Oc2ccc3c(c2)CCC(c2ccccc2)O3)CC1 (relative stereo) [compound 36] | 300 |
| Cc1n[nH]c(C)c1CCC(=O)N[C@H]1CC[C@H](Oc2ccc3c(c2)CCC(c2ccccc2)O3)CC1 (relative stereo) [compound 37] | 300 |
| O=C(CCn1cncn1)N[C@H]1CC[C@H](Oc2ccc3c(c2)CCC(c2ccccc2)O3)CC1 (relative stereo) [compound 38] | 400 |
| O=C(CCn1cccn1)N[C@H]1CC[C@H](Oc2ccc3c(c2)CCC(c2ccccc2)O3)CC1 (relative stereo) [compound 39] | 300 |
| Cc1nc(CC(=O)N[C@H]2CC[C@H](Oc3ccc4c(c3)CCC(c3ccccc3)O4)CC2)c(C)s1 (relative stereo) [compound 40] | 300 |
| Cc1cc(C)n(CC(=O)N[C@H]2CC[C@H](Oc3ccc4c(c3)CCC(c3ccccc3)O4)CC2)n1 (relative stereo) [compound 41] | 300 |
| Cc1ccnn1CCC(=O)N[C@H]1CC[C@H](Oc2ccc3c(c2)CCC(c2ccccc2)O3)CC1 (relative stereo) [compound 42] | 200 |
| Cc1n[nH]c(C)c1CC(=O)N[C@H]1CC[C@H](Oc2ccc3c(c2)CCC(c2ccccc2)O3)CC1 (relative stereo) [compound 43] | 100 |
| CCC(C)(O)C(=O)N[C@H]1CC[C@H](Oc2ccc3c(c2)CCC(c2ccccc2)O3)CC1 (relative stereo) [compound 44] | 300 |
| c1ccc(C2CCc3cc(O[C@H]4CC[C@H](NCc5cncs5)CC4)ccc3O2)cc1 (relative stereo) [compound 47] | 400 |
| c1ccc(C2CCc3cc(O[C@H]4CC[C@H](NCc5ccsc5)CC4)ccc3O2)cc1 (relative stereo) [compound 50] | 600 |
| c1ccc(C2CCc3cc(O[C@H]4CC[C@H](NCc5cccs5)CC4)ccc3O2)cc1 (relative stereo) [compound 51] | 600 |
| FC(F)(F)CCN[C@H]1CC[C@H](Oc2ccc3c(c2)CCC(c2ccccc2)O3)CC1 (relative stereo) [compound 54] | 600 |
| c1ccc(C2CCc3cc(O[C@H]4CC[C@H](NCc5nccs5)CC4)ccc3O2)cc1 (relative stereo) [compound 55] | 400 |
| CC(C)(C)CN[C@H]1CC[C@H](Oc2ccc3c(c2)CCC(c2ccccc2)O3)CC1 (relative stereo) [compound 58, N-(2,2-Dimethylpropyl)-[trans-4-(2-phenylchroman-6-yloxy)]-cyclohexylamine] | 600 |
| Cc1nn(C)c(C)c1CN[C@H]1CC[C@H](Oc2ccc3c(c2)CCC(c2ccccc2)O3)CC1 (relative stereo) [compound 60] | 400 |
| c1ccc(C2CCc3cc(O[C@H]4CC[C@H](NCC5CCOC5)CC4)ccc3O2)cc1 (relative stereo) [compound 61] | 300 |
| C[C@H]1CC[C@H](NC2CCC(Oc3ccc4c(c3)CCC(c3ccccc3)O4)CC2)CC1 (relative stereo) [compound 146] | 2000 |
| Cc1ccccc1C1CCc2cc(O[C@H]3CC[C@H](NC(=O)CCn4cccn4)CC3)ccc2O1 (relative stereo) [compound 153] | 1200 |
| Cc1ccccc1C1CCc2cc(O[C@H]3CC[C@H](NCC4CCOC4)CC3)ccc2O1 (relative stereo) [compound 154, (Tetrahydrofuran-3-ylmethyl)-[trans-4-(2-o-tolyl-chroman-6-yloxy)-cyclohexyl]-amine] | 2200 |
| Cc1ccccc1C1CCc2cc(O[C@H]3CC[C@H](N(CC4CCOC4)CC4CCOC4)CC3)ccc2O1 (relative stereo) [compound 155, Bis-(tetrahydrofuran-3-ylmethyl)-[trans-4-(2-o-tolyl-chroman-6-yloxy)-cyclohexyl]-amine] | 5300 |
